Experimental data reported in the kinase profiling compilation of Christmann-Franck et al. (2016).
Where “and” joins values, the source holds several entries; their conditions need not be identical. Equal entries are not always repeated.

Legend:
Test in all cases: Caliper, Mobility shift assay off-chip
JAK2 JH1 JH2 (human) = JAK2 JH1 JH2 (human) (UniProt O60674)
NEK9 (human) = NEK9 (human) (UniProt Q8TD19)
TNIK (human) = TNIK (human) (UniProt Q9UKE5)
RPS6KA1 KD1 KD2 (human) = RPS6KA1 KD1 KD2 (human) (UniProt Q15418)
STK10 (human) = STK10 (human) (UniProt O94804)
JAK3 JH1 JH2 (human) = JAK3 JH1 JH2 (human) (UniProt P52333)
TBK1 (human) = TBK1 (human) (UniProt Q9UHD2)
SIK1 (human) = SIK1 (human) (UniProt P57059)
DCLK2 (human) = DCLK2 (human) (UniProt Q8N568)
CSNK1G1 (human) = CSNK1G1 (human) (UniProt Q9HCP0)
CSNK1G1 (human), sequence (Q9HCP0 whole entry, looked up): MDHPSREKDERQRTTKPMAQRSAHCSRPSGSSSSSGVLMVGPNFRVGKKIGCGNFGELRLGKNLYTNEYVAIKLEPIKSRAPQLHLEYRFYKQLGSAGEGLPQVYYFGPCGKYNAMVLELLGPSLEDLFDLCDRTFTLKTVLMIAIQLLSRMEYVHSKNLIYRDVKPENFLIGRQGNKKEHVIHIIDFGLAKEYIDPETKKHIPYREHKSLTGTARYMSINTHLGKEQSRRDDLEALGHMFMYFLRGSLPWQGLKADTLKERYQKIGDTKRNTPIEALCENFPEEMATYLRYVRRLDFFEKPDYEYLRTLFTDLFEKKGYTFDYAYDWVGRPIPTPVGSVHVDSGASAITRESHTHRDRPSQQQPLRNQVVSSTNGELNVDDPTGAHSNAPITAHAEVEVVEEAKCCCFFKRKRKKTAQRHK

PDK2 (human) = PDK2 (human) (UniProt Q15119)
HIPK4 (human) = HIPK4 (human) (UniProt Q8NE63)
CDK9 (human) = CDK9 (human) (UniProt P50750)
RPS6KA2 KD1 KD2 (human) = RPS6KA2 KD1 KD2 (human) (UniProt Q15349)
RPS6KA2 KD1 KD2 (human), sequence (Q15349 whole entry, looked up): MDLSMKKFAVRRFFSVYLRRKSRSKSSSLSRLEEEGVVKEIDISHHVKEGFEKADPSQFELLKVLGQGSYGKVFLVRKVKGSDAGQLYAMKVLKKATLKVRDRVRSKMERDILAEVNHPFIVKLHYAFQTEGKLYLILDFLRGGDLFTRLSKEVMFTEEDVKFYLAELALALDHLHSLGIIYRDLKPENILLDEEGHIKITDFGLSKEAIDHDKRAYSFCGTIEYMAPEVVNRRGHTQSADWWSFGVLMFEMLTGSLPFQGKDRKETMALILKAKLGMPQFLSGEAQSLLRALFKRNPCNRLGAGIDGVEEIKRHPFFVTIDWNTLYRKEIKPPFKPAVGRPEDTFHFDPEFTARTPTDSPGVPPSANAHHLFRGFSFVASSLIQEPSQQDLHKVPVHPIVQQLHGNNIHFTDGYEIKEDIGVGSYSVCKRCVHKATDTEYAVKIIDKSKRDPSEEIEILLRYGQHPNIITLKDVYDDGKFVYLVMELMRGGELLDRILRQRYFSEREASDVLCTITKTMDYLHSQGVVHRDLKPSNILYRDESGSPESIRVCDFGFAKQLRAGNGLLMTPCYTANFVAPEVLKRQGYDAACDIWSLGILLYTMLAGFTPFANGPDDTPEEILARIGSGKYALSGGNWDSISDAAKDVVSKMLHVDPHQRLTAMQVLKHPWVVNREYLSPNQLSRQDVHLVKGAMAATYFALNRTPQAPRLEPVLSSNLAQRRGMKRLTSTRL

SRPK2 (human) = SRPK2 (human) (UniProt P78362)
MAPK9 (human) = MAPK9 (human) (UniProt P45984)
HIPK3 (human) = HIPK3 (human) (UniProt Q9H422)
PRKCD (human) = PRKCD (human) (UniProt Q05655)
DDR1 (human) = DDR1 (human) (UniProt Q08345)
DDR1 (human), sequence (Q08345 whole entry, looked up): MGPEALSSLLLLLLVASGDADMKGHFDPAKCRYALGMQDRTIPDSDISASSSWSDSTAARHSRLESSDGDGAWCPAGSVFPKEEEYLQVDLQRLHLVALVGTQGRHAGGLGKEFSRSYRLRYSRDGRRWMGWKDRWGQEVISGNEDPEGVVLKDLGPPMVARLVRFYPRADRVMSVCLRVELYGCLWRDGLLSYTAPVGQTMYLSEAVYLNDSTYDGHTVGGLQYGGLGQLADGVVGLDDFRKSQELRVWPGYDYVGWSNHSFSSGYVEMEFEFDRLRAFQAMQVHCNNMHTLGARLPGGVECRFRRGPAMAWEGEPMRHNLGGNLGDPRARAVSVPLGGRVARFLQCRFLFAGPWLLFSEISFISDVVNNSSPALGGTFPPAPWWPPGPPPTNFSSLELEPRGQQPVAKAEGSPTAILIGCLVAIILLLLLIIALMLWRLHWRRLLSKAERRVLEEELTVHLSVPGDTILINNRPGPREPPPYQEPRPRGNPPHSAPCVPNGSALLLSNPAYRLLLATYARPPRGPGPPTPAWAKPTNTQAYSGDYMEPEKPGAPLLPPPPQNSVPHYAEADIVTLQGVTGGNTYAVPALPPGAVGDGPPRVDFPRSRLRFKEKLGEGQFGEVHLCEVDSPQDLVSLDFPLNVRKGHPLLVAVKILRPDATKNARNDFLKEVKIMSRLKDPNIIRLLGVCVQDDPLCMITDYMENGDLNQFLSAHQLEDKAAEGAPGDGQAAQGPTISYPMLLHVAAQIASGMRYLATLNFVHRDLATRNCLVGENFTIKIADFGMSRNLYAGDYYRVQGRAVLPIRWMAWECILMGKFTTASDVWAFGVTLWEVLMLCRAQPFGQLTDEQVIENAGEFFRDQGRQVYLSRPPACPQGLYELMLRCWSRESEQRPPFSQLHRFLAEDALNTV

SIK2 (human) = SIK2 (human) (UniProt Q9H0K1)
SIK2 (human), sequence (Q9H0K1 whole entry, looked up): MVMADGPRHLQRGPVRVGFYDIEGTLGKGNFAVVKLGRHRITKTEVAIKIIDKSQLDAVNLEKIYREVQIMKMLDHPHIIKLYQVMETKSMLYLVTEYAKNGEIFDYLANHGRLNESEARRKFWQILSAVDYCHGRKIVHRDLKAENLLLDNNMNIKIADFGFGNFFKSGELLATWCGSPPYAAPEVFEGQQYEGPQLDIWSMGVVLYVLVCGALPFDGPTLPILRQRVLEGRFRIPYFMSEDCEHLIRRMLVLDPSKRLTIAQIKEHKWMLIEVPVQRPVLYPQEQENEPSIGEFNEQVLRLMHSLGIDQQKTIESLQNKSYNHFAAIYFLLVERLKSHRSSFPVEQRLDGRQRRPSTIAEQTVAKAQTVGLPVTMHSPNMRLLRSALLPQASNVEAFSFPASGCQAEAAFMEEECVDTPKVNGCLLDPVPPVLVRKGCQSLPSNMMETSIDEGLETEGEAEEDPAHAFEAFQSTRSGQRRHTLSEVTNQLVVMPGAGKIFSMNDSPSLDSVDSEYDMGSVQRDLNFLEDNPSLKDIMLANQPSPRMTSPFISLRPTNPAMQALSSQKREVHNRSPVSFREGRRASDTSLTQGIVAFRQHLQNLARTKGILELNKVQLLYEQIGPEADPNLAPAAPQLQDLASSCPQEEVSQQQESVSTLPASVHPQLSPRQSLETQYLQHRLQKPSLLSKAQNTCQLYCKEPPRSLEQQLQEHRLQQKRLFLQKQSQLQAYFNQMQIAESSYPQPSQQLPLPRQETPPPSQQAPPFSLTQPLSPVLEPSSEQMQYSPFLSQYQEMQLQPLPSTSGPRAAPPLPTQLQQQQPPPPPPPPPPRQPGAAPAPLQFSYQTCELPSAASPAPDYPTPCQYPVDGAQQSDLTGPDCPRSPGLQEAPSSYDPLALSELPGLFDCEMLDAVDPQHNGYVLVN

NTRK2 (human) = NTRK2 (human) (UniProt Q16620)
TSSK1B (human) = TSSK1B (human) (UniProt Q9BXA7)
CSNK1D (human) = CSNK1D (human) (UniProt P48730)
CSNK1D (human), sequence (P48730 whole entry, looked up): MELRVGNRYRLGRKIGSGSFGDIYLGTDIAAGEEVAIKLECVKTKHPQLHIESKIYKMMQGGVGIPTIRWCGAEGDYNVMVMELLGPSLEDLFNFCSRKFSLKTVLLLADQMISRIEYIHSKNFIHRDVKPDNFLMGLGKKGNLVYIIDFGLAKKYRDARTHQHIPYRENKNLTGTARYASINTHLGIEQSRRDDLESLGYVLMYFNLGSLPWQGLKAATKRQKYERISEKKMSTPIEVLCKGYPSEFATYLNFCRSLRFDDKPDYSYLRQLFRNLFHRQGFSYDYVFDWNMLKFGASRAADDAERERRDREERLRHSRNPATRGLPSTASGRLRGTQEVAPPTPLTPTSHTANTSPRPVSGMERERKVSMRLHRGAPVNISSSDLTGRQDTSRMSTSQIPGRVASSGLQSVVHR

IKBKB (human) = IKBKB (human) (UniProt O14920)
MAPK11 (human) = MAPK11 (human) (UniProt Q15759)
PDK4 (human) = PDK4 (human) (UniProt Q16654)
PASK (human) = PASK (human) (UniProt Q96RG2)
NUAK2 (human) = NUAK2 (human) (UniProt Q9H093)
WNK2 (human) = WNK2 (human) (UniProt Q9Y3S1)
CAMK4 (human) = CAMK4 (human) (UniProt Q16566)
PRKCZ (human) = PRKCZ (human) (UniProt Q05513)
PRKD2 (human) = PRKD2 (human) (UniProt Q9BZL6)
EPHB1 (human) = EPHB1 (human) (UniProt P54762)

TNIK (human), sequence (Q9UKE5 whole entry, looked up): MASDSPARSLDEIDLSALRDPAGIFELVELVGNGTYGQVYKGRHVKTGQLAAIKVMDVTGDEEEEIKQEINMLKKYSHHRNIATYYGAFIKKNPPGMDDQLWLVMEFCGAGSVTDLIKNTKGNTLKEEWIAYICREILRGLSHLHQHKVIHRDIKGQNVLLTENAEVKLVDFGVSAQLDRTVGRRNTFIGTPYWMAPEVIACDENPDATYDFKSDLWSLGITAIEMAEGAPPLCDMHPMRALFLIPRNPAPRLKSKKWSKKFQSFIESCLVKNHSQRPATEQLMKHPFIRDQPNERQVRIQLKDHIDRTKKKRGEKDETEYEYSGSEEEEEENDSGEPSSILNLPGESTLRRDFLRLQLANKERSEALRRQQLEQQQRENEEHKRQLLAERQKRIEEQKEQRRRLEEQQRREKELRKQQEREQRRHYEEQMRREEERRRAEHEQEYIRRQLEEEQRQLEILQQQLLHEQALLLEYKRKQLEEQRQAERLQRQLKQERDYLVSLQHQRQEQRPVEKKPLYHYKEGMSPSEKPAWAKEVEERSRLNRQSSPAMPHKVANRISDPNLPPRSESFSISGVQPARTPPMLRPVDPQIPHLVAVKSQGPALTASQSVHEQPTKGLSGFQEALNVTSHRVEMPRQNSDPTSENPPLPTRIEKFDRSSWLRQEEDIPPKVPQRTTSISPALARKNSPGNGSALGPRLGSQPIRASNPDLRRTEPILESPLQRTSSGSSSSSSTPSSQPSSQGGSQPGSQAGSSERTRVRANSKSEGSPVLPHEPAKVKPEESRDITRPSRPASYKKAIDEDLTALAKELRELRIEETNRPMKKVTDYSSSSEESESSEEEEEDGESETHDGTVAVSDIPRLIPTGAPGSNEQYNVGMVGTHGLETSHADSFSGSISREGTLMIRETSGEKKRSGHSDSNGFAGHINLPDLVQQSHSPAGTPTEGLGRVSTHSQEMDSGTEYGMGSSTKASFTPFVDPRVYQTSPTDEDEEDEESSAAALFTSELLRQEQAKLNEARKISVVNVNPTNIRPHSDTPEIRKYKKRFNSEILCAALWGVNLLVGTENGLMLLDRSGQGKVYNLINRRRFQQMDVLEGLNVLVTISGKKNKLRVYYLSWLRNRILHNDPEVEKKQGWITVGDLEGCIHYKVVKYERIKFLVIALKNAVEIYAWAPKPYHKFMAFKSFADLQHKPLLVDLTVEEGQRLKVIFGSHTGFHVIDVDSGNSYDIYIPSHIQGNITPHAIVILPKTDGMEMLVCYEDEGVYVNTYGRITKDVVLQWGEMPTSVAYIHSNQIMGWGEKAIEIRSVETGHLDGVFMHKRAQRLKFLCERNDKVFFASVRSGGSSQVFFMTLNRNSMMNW

inhibition (JAK2 JH1 JH2 (human); compound 0.02 µM): -3.6% | inhibition (JAK2 JH1 JH2 (human); compound 0.2 µM): 8.1% | inhibition (TNIK (human); compound 0.02 µM): -6.2% | inhibition (TNIK (human); compound 0.2 µM): 0.8% | inhibition (RPS6KA1 KD1 KD2 (human); compound 0.02 µM): -3.6% | inhibition (RPS6KA1 KD1 KD2 (human); compound 0.2 µM): 3.1% | inhibition (STK10 (human); compound 0.02 µM): 3.3% | inhibition (STK10 (human); compound 0.2 µM): 36.1% | inhibition (JAK3 JH1 JH2 (human); compound 0.02 µM): -3.6% | inhibition (JAK3 JH1 JH2 (human); compound 0.2 µM): 8.1% | inhibition (TBK1 (human); compound 0.02 µM): -1.4% | inhibition (TBK1 (human); compound 0.2 µM): -1.1% | inhibition (SIK1 (human); compound 0.02 µM): -3.4% | inhibition (SIK1 (human); compound 0.2 µM): 7.3% | inhibition (DCLK2 (human); compound 0.02 µM): -2.7% | inhibition (DCLK2 (human); compound 0.2 µM): -1% | inhibition (CSNK1G1 (human); compound 0.02 µM): -3.7% | inhibition (CSNK1G1 (human); compound 0.2 µM): -3% | inhibition (PDK2 (human); compound 0.02 µM): -0.1% | inhibition (PDK2 (human); compound 0.2 µM): 1.3% | inhibition (HIPK4 (human); compound 0.02 µM): 84% | inhibition (HIPK4 (human); compound 0.2 µM): 98.4% | inhibition (CDK9 (human); compound 0.02 µM): -7.5% | inhibition (CDK9 (human); compound 0.2 µM): -6.7% | inhibition (RPS6KA2 KD1 KD2 (human); compound 0.02 µM): -4.3% | inhibition (RPS6KA2 KD1 KD2 (human); compound 0.2 µM): -0.2% | inhibition (SRPK2 (human); compound 0.02 µM): -5.7% | inhibition (SRPK2 (human); compound 0.2 µM): -6.5% | inhibition (MAPK9 (human); compound 0.02 µM): -7.7% | inhibition (MAPK9 (human); compound 0.2 µM): 0.5% | inhibition (HIPK3 (human); compound 0.02 µM): 3.2% | inhibition (HIPK3 (human); compound 0.2 µM): 28% | inhibition (PRKCD (human); compound 0.02 µM): -1.7% | inhibition (PRKCD (human); compound 0.2 µM): 11.7% | inhibition (DDR1 (human); compound 0.02 µM): 4.2% | inhibition (DDR1 (human); compound 0.2 µM): 88.7% | inhibition (SIK2 (human); compound 0.02 µM): -3.8% | inhibition (SIK2 (human); compound 0.2 µM): 3% | inhibition (NTRK2 (human); compound 0.02 µM): 3.2% | inhibition (NTRK2 (human); compound 0.2 µM): 37.4% | inhibition (TSSK1B (human); compound 0.02 µM): -3.7% | inhibition (TSSK1B (human); compound 0.2 µM): -2.9% | inhibition (CSNK1D (human); compound 0.02 µM): -2.4% and -2.9% | inhibition (CSNK1D (human); compound 0.2 µM): -3.6% | inhibition (IKBKB (human); compound 0.02 µM): 0.9% | inhibition (IKBKB (human); compound 0.2 µM): 1.4% | inhibition (MAPK11 (human); compound 0.02 µM): 10.4% | inhibition (MAPK11 (human); compound 0.2 µM): 62.3% | inhibition (PDK4 (human); compound 0.02 µM): 1.9% | inhibition (PDK4 (human); compound 0.2 µM): 3.4% | inhibition (PASK (human); compound 0.02 µM): -1% | inhibition (PASK (human); compound 0.2 µM): 1.7% | inhibition (NUAK2 (human); compound 0.02 µM): -6% | inhibition (NUAK2 (human); compound 0.2 µM): 2.5% | inhibition (WNK2 (human); compound 0.02 µM): -8.6% | inhibition (WNK2 (human); compound 0.2 µM): 3.6% | inhibition (CAMK4 (human); compound 0.02 µM): -8.3% | inhibition (CAMK4 (human); compound 0.2 µM): 1.9% | inhibition (PRKCZ (human); compound 0.02 µM): 0% | inhibition (PRKCZ (human); compound 0.2 µM): 11.3% | inhibition (PRKD2 (human); compound 0.02 µM): -1.2% | inhibition (PRKD2 (human); compound 0.2 µM): 0% | inhibition (EPHB1 (human); compound 0.02 µM): -1.8% | inhibition (EPHB1 (human); compound 0.2 µM): 8.5%
SMILES: CNC(=O)c1cc(Oc2ccc(NC(=O)Nc3ccc(Cl)c(C(F)(F)F)c3)cc2)ccn1
inhibition (NEK9 (human); compound 0.02 µM): -3.7% | inhibition (NEK9 (human); compound 0.2 µM): -5.9%
